Laboratory results reported in the supplement of paper PMC8967900.

Assays:
Assay in all cases: selective drug sensitivity score (sDSS, relative to normal bone marrow) (sDSS (score)); higher = more potent and effective on the cell line relative to normal bone marrow cells
Details in all cases: 72 h
MHH-CALL-3 = test system: MHH-CALL-3
MOLT-14 = test system: MOLT-14
LC4-1 = test system: LC4-1
NALM-6 = test system: NALM-6
ALL-PO = test system: ALL-PO
COG-LL-332h = test system: COG-LL-332h
SUP-B15 = test system: SUP-B15
KASUMI-10 = test system: KASUMI-10
HPB-ALL = test system: HPB-ALL
COG-LL-394h = test system: COG-LL-394h
COG-LL-317 = test system: COG-LL-317
TMD5 = test system: TMD5
MOLT-16 = test system: MOLT-16
KOPN-8 = test system: KOPN-8
KARPAS-45 = test system: KARPAS-45
P30-OHKUBO = test system: P30-OHKUBO
MOLT-4 = test system: MOLT-4
NALL-1 = test system: NALL-1
HAL-01 = test system: HAL-01
MHH-CALL-4 = test system: MHH-CALL-4
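Note: ALL cell lines in 384-well plates, five doses spanning 10,000-fold, each plate scaled between vehicle and 100 µmol/L benzalkonium chloride controls, sDSS an adapted area-under-curve metric.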

Row | Compound | selective drug sensitivity score (MHH-CALL-3) | selective drug sensitivity score (MOLT-14) | selective drug sensitivity score (LC4-1) | selective drug sensitivity score (NALM-6) | selective drug sensitivity score (ALL-PO) | selective drug sensitivity score (COG-LL-332h) | selective drug sensitivity score (SUP-B15) | selective drug sensitivity score (KASUMI-10) | selective drug sensitivity score (HPB-ALL) | selective drug sensitivity score (COG-LL-394h) | selective drug sensitivity score (COG-LL-317) | selective drug sensitivity score (TMD5) | selective drug sensitivity score (MOLT-16) | selective drug sensitivity score (KOPN-8) | selective drug sensitivity score (KARPAS-45) | selective drug sensitivity score (P30-OHKUBO) | selective drug sensitivity score (MOLT-4) | selective drug sensitivity score (NALL-1) | selective drug sensitivity score (HAL-01) | selective drug sensitivity score (MHH-CALL-4)
1 | O=S(=O)(c1cccc2c(O)nccc12)N1CCCNCC1 [Hydroxyfasudil] (top concentration 19000 nM) | 3.88 | -0.92 | -0.92 | -0.92 | -0.92 | -0.82 | -0.52 | -0.82 | -0.92 | -0.92 | -0.22 | 5.68 | -0.02 | 0.78 | 0.48 | -0.52 | -0.72 | 2.58 | 1.38 | -0.12
2 | COc1cc(C(=O)O)ccc1NC(=O)[C@@H]1N[C@@H](CC(C)(C)C)[C@](C#N)(c2ccc(Cl)cc2F)[C@H]1c1cccc(Cl)c1F [Idasanutlin] (top concentration 10000 nM) | 21.9 | 15.6 | 19.1 | 5.66 | -12.5 | 14.5 | 29.3 | 18.4 | -8.54 | 4.96 | 28.4 | 12.6 | 21.3 | 25.7 | -8.34 | 20.8 | 20.7 | -8.44 | 19.1 | 12.3
3 | CCN1CCN(c2ccc(Nc3cc(N(C)C(=O)Nc4c(Cl)c(OC)cc(OC)c4Cl)ncn3)cc2)CC1 [Infigratinib] (top concentration 1000 nM) | 0 | 0 | 0 | 0 | 0 | 0 | 0 | 0 | 0 | 0 | 0 | 0 | 0 | 0 | 0 | 0 | 0 | 0 | 0 | 0
4 | O=C(Nc1cnn2ccc(N3CCC[C@@H]3c3cc(F)ccc3F)nc12)N1CC[C@H](O)C1 [Larotrectinib] (top concentration 1000 nM) | -0.62 | -0.62 | 1.28 | 0.48 | -0.62 | -0.62 | 0.08 | -0.62 | 4.18 | -0.62 | -0.62 | -0.62 | -0.62 | -0.62 | -0.62 | -0.52 | -0.62 | -0.62 | 0.68 | -0.62
5 | C[C@]1(O)C[C@@H](c2nc(-c3ccc4ccc(-c5ccccc5)nc4c3)c3c(N)nccn32)C1 [Linsitinib] (top concentration 10000 nM) | -3.18 | -3.18 | 0.92 | -3.18 | 3.92 | -2.78 | -3.18 | -2.28 | 2.22 | -0.68 | -3.18 | 1.62 | -3.18 | -0.38 | -3.18 | -0.68 | -2.58 | -0.08 | -1.78 | 0.22
